Test results from patent publication US20200069644A1, “NOVEL USE OF A FORMYL PEPTIDE RECEPTOR 2/ LIPOXIN A4 RECEPTOR (FPR2/ALX) AGONIST FOR TREATMENT OF HEART FAILURE” (BRISTOL- MYERS SQUIBB COMPANY, priority 2017, published 2020).
Where “and” joins values, the source holds several entries; their conditions need not be identical. Equal entries are not always repeated.

What was measured:
Human FPR1 = target: T1, Human FPR1 (Homo sapiens, UniProt P21462); assay: FPR1 cAMP assay (cAMP inhibition); assay type: cell-based; details: Human FPR1/CHO-A12
T1 construct: expressed in transfected cells; host or cells: CHO-A12
T1 sequence (P21462 1-350): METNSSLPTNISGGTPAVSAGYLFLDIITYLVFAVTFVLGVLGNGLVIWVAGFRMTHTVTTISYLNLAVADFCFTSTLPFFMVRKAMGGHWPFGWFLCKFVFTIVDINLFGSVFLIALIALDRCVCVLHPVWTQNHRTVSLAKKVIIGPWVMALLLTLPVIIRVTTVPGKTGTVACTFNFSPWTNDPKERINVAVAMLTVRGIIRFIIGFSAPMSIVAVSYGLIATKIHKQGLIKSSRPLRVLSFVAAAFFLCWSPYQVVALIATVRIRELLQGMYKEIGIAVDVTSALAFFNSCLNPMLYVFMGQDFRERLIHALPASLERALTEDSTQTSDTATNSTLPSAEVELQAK
Experimental: A mixture of forskolin (5 μM final for FPR2 or 10 μM final for FPR1) and IBMX (200 μM final) were added to 384-well Proxiplates (Perkin-Elmer) pre-dotted with test compounds in DMSO (1% final) at final concentrations in the range of 0.1 nM to 10 μM. CHO overexpressing human FPR1 or human FPR2 receptors were cultured in F-12 (Ham's) medium supplemented with 10% qualified FBS, 250 μg/ml zeocin and 300 μg/ml hygromycin (Life Technologies). Reactions were initiated by adding 2,000 human FPR2 cells per well or 4,000 human FPR1 cells per well in Dulbecco's PBS (with calcium and magnesium) (Life Technologies) supplemented with 0.1% BSA (Perkin-Elmer). The reaction mixtures were incubated for 30 min at room temperature. The level of intracellular cAMP was determined using the HTRF HiRange cAMP assay reagent kit (Cisbio) according to manufacturer's instruction. Solutions of cryptate conjugated anti-cAMP and d2 flurorophore-labelled cAMP were made in a supplied lysis buffer separately. […] After a 1 h room temperature incubation, time-resolved fluorescence intensity was measured using the Envision (Perkin-Elmer) at 400 nm excitation and dual emission at 590 nm and 665 nm. […] The potency and activity of Compound 1 to inhibit cAMP production was then determined by fitting to a 4-parametric logistic equation from a plot of cAMP level versus compound concentrations. […]

Mouse FPR1 = target: T2, Mouse FPR1 (Mus musculus, UniProt P33766); assay: cAMP inhibition, mouse FPR1/CHO-A12; assay type: cell-based
T2 construct: expressed in transfected cells
T2 sequence (P33766 1-364): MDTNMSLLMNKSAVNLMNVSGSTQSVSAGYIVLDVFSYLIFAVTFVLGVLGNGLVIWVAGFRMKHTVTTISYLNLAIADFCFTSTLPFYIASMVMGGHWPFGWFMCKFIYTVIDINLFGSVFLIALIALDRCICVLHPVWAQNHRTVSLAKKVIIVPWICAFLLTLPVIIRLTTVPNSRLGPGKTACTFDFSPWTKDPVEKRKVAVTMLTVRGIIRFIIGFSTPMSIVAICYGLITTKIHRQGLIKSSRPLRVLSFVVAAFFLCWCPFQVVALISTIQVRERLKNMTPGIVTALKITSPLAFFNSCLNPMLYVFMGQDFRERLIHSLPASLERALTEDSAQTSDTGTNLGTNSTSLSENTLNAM

HL-60 cell line = assay: HL-60 cell migration assay, antagonist mode (SAA-stimulated chemotaxis); assay type: cell-based; details: Homo sapiens; HL-60 cells; read-out: IC50, antagonism of chemotaxis stimulated by SAA
Experimental: The HL-60 cell line (ATCC, CCL-240, lot 60398411) was maintained in IMDM (Life Tech, cat 12440-053) medium supplemented with 20% fetal bovine serum, 50 U/ml penicillin, and 50 μg/ml streptomycin at 37° with 5% CO2. Cells were differentiated into the granulocyte lineage with DMSO; 2.5×10^5 cells/ml were incubated with 1.25% DMSO for 5 days.
After 5 day differentiation, the cells were resuspended in phenol free RPMI (Invitrogen, cat 11835) with 0.2% fatty acid free BSA at a concentration of […]. The dHL-60 cells (10^5 in 100 μl) were pre-incubated for 15 minutes with varying concentrations of the […] at 37° with 5% CO2. Then 0.8 μM of the recombinant serum amyloid A1 peptide (rSAA1, PeproTech, Cat #300-53) was added to the bottom chamber of each HTS transwell-96 well plate (Corning #3387). Migration was induced by placing […] and the dHL60 cells mixture in the top chamber of the transwell plate. Cells were allowed to migrate for 120 min across the 5 micron filters at 37° C. with 5% CO2. Following migration, neutrophils or dHL-60 cells remaining in the transwell lower chamber (migrated fraction) were quantitated using the cell-titer-glo luminescence cell viability assay (Promega, G7571). […]

[1] = test system: myocardial infarction in mice; assay: Mouse permanent coronary artery occlusion, early infarct composition 3 days post MI; assay type: in vivo; details: 3 mg/kg PO QD
Experimental: In order to understand early changes in the infarct extracellular matrix, collagen remodeling enzymes and their endogenous inhibitors, the effects of 3 mg/kg Compound 1 treatment on the myocardial infarct composition in mice were evaluated 3 days post myocardial infarction. Myocardial infarction was created by permanently ligating the left anterior descending artery with a surgical suture. Treatment (QD, PO; suspension vehicle or Compound 1 at 3 mg/kg) was initiated 24 hours after MI and were continued to 3 days post MI. On day 3, mice received a final dose of treatment and the hearts were removed 2 hours post treatment (i.e., 74 hours after MI) for histological analysis.

## COc1cc(F)c([C@@H]2CNC(=O)[C@H]2NC(=O)Nc2ccccc2)c(F)c1 [Compound 1, 1-((3S,4R)-4-(2,6-difluoro-4-methoxyphenyl)-2-oxopyrrolidin-3-yl)-3-phenylurea]
Human FPR1
  EC50: 1250 nM
Mouse FPR1
  EC50: ~384 nM and 384 nM
HL-60 cell line
  IC50: 57 nM
[1]
  MMP-2 in infarcted myocardium vs. vehicle: trend towards less MMP-2
  TIMP-4 in infarcted tissue vs. vehicle: No differences
  average infarct area vs. vehicle: similar
[1]; P<0.05
  collagen content within the infarct, increase vs. vehicle: 1.7 fold
